According to patent US10676508B2, “DEPDC1-derived peptide and vaccine containing same” (OncoTherapy Science, Inc., priority 2015, dated 2020):

Tested on: peptide-pulsed C1R-A11
Assay: In vitro CTL induction, IFN-gamma ELISPOT assay (HLA-A*1101)
Assay type: cell-based, human
Settings: CTLs from HLA-A*1101-positive donors, DCs pulsed with 20 micro-g/ml peptide, day 21, versus unpulsed C1R-A11
Text: Monocyte-derived dendritic cells (DCs) were used as the antigen-presenting cell to induce a cytotoxic T lymphocyte (CTL) response against peptides presented on human leukocyte antigens (HLAs). As described in the other sections, DCs were generated in vitro (Nakahara S et al., Cancer Res 2003, 63(14): 4112-8). Specifically, peripheral-blood mononuclear cells isolated from healthy volunteers (HLA-A*1101-positive) with the Ficoll-Paque plus solution (Pharmacia) were separated by attaching to plastic tissue culture dishes (Becton Dickinson) and concentrated as a monocyte fraction. The monocyte-concentrated population was cultured in the presence of 1000 IU/ml granulocyte macrophage colony-stimulating factor (R&D System) and 1000 IU/ml interleukin (IL)-4 (R&D System) in an AIM-V medium (Invitrogen) containing 2% heat-inactivated autologous serum (AS). After seven days of culturing, the cytokine-induced DCs were pulsed with 20 micro-g/ml each of the synthesized peptides in an AIM-V medium at 37 degrees C. for three hours in the presence of 3 micro-g/ml beta 2-microglobulin.
Next, these peptide-pulsed DCs were inactivated by X-ray irradiation (20 Gy), and mixed in a 1:20 ratio with autologous CD8^+ T cells obtained by positive selection using the CD8 Positive Isolation Kit (Dynal). These culture products were seeded in a 48-well plate (Corning). […]

| Sequence | peptide-specific CTL activity (IFN-gamma production, ELISPOT) |
| --- | --- |
| ATINKRLCK (a peptide derived from DEPDC1) [SEQ ID NO: 2] | specific IFN-gamma production was not observed |

Tested on: peptide-pulsed C1R-A01 cells
Assay: In vitro CTL induction, IFN-gamma ELISPOT assay (HLA-A*0101)
Assay type: cell-based, human
Settings: CTLs from HLA-A*0101-positive donors, DCs pulsed with 20 micro-g/ml peptide, day 21, versus unpulsed C1R-A01
Text: Monocyte-derived dendritic cells (DCs) were used as the antigen-presenting cell to induce a cytotoxic T lymphocyte (CTL) response against peptides presented on human leukocyte antigens (HLAs). As described in the other sections, DCs were generated in vitro (Nakahara S et al., Cancer Res 2003, 63(14): 4112-8). Specifically, peripheral-blood mononuclear cells isolated from healthy volunteers (HLA-A*0101-positive) with the Ficoll-Paque plus solution (Pharmacia) were separated by attaching to plastic tissue culture dishes (Becton Dickinson) and concentrated as a monocyte fraction. The monocyte-concentrated population was cultured in the presence of 1000 IU/ml granulocyte macrophage colony-stimulating factor (R&D System) and 1000 IU/ml interleukin (IL)-4 (R&D System) in an AIM-V medium (Invitrogen) containing 2% heat-inactivated autologous serum (AS). After seven days of culturing, the cytokine-induced DCs were pulsed with 20 micro-g/ml each of the synthesized peptides in an AIM-V medium at 37 degrees C. for three hours in the presence of 3 micro-g/ml beta 2-microglobulin. Next, these peptide-pulsed DCs were inactivated by X-ray irradiation (20 Gy), and mixed in a 1:20 ratio with autologous CD8^+ T cells obtained by positive selection using the CD8 Positive Isolation Kit (Dynal). These culture products were seeded in a 48-well plate (Corning). Each well was made to contain 1.5×10^4 peptide-pulsed DCs, 3×10^5 CD8^+ T cells and 10 ng/ml IL-7 (R&D System) in 0.5 ml of the AIM-V/2% AS medium. Three days later, these culture products were added with a final concentration of 20 IU/ml IL-2 (CHIRON). On day 7 and day 14, T cells were further stimulated with peptide-pulsed autologous DCs. The DCs were prepared every time by the same method as above. On day 21, after the third peptide stimulation, CTL activities were examined against the peptide-pulsed C1R-A01 cells (Tanaka H et al., Br J Cancer 2001, 84(1): 94-9; Umano Y et al., Br J Cancer 2001, 84(8): 1052-7; Uchida N et al., Clin Cancer Res 2004, 10(24): 8577-86; Suda T et al., Cancer Sci 2006, 97(5): 411-9; Watanabe T et al., Cancer Sci 2005, 96(8): 498-506).
To examine specific CTL activity, an IFN-gamma ELISPOT assay and an IFN-gamma ELISA were performed. Specifically, peptide-pulsed C1R-A01 cells (1×10^4 cells/well) were prepared as the stimulator cell. The induced CTLs, i.e., CTL lines and CTL clones, were used as the responder cell. The IFN-gamma ELISPOT assay and IFN-gamma ELISA were performed according to the manufacturer's manual.

| Sequence | peptide-specific CTL activity (IFN-gamma production, ELISPOT) |
| --- | --- |
| AGEAVDWLY (a peptide derived from DEPDC1) [SEQ ID NO: 82] | potent IFN-gamma production |
| ESQGVPPGPY (a peptide derived from DEPDC1) [SEQ ID NO: 91] | potent IFN-gamma production |
| EVWRYVILIY (a peptide derived from DEPDC1) [SEQ ID NO: 99] | potent IFN-gamma production |
| FLESKPKQEF (a peptide derived from DEPDC1) [SEQ ID NO: 102] | potent IFN-gamma production |
| FQKEYPLIY (a peptide derived from DEPDC1) [SEQ ID NO: 87] | potent IFN-gamma production |
| HQEILQVPSY (a peptide derived from DEPDC1) [SEQ ID NO: 103] | potent IFN-gamma production |
| HSEENIQKPF (a peptide derived from DEPDC1) [SEQ ID NO: 101] | potent IFN-gamma production |
| KSDDLPHWV (a peptide derived from DEPDC1) [SEQ ID NO: 81] | potent IFN-gamma production |
| LFAPLPTYSY (a peptide derived from DEPDC1) [SEQ ID NO: 96] | potent IFN-gamma production |
| LPEPLLTFEY (a peptide derived from DEPDC1) [SEQ ID NO: 107] | potent IFN-gamma production |
| LSENSLLPA (a peptide derived from DEPDC1) [SEQ ID NO: 84] | potent IFN-gamma production |
| LTFEYYELF (a peptide derived from DEPDC1) [SEQ ID NO: 88] | potent IFN-gamma production |
| NVDDNNQLF (a peptide derived from DEPDC1) [SEQ ID NO: 85] | potent IFN-gamma production |
| PTTESEAALF (a peptide derived from DEPDC1) [SEQ ID NO: 94] | specific IFN-gamma production was not observed |
| QEDVEEVWRY (a peptide derived from DEPDC1) [SEQ ID NO: 106] | potent IFN-gamma production |
| QTAVEKHLDY (a peptide derived from DEPDC1) [SEQ ID NO: 90] | potent IFN-gamma production |
| RSNDMNNPTY (a peptide derived from DEPDC1) [SEQ ID NO: 58] | potent IFN-gamma production |
| RSSTRRNSY (a peptide derived from DEPDC1) [SEQ ID NO: 21] | potent IFN-gamma production |
| SNDMNNPTY (a peptide derived from DEPDC1) [SEQ ID NO: 86] | potent IFN-gamma production |
| STECLLLSLL (a peptide derived from DEPDC1) [SEQ ID NO: 104] | potent IFN-gamma production |
| TAGEAVDWLY (a peptide derived from DEPDC1) [SEQ ID NO: 92] | potent IFN-gamma production |
| TTESEAALF (a peptide derived from DEPDC1) [SEQ ID NO: 83] | potent IFN-gamma production |
| VSDRSSGIH (a peptide derived from DEPDC1) [SEQ ID NO: 89] | potent IFN-gamma production |
